The text below walks through data of article PMC11942890, “Identification of a Novel NPC1L1 Inhibitor from Danshen and Its Role in Nonalcoholic Fatty Liver Disease” (International Journal of Molecular Sciences, 2025).

In test [1] the target is T1, Niemann-Pick C1-like 1 (NPC1L1) (Homo sapiens, UniProt Q9UHC9).
T1 construct: hNPC1L1 CDS (NM_001101648.2) with 3 × Flag tag at the 3′ end, stably expressed in Caco2 cells (hL1-Caco2)
The experiment in a line: NBD-cholesterol uptake inhibition in hL1-Caco2 cells stably expressing human NPC1L1. It counts as cell-based.

In test [2] the target is T1, Niemann-Pick C1-like 1 (NPC1L1). Briefly: reference inhibitor; NPC1L1 inhibition in hL1-Caco2 cells (NBD-cholesterol uptake). It counts as cell-based.

T1 sequence (Q9UHC9 other isoform, or with tags, fused parts or gaps): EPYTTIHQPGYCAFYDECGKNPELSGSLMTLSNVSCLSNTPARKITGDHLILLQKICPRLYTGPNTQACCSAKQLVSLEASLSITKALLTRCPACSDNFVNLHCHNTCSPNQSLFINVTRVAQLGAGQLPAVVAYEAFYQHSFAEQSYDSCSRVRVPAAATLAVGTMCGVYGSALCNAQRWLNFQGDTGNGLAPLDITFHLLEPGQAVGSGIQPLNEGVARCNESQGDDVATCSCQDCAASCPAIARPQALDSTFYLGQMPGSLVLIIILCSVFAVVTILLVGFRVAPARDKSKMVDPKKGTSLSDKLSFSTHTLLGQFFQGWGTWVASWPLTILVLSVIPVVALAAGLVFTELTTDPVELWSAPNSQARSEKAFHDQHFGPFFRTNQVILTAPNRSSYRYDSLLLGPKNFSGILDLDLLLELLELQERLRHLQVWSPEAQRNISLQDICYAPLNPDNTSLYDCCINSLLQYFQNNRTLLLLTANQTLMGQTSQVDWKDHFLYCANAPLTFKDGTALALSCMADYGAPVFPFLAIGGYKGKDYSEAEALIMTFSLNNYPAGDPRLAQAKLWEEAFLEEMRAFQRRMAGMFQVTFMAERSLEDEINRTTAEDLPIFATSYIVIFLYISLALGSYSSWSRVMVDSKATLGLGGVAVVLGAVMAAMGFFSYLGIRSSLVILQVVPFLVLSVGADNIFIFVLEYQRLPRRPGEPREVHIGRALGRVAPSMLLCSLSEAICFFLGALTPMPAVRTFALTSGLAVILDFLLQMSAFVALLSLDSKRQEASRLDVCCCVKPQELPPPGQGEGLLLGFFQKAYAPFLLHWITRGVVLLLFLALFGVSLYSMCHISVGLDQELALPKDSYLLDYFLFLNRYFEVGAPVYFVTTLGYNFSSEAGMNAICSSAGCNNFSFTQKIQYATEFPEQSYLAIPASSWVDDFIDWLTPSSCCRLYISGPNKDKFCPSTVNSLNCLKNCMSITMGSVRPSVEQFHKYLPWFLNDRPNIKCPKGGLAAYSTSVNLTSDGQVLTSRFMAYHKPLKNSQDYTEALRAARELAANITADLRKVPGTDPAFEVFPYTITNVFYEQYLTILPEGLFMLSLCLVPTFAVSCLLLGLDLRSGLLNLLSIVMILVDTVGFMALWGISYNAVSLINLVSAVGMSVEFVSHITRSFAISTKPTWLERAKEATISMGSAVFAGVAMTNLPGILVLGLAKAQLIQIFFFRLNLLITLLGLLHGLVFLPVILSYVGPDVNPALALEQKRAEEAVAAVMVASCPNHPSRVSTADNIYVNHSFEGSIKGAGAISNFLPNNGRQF

Usually IC50 stands for the concentration that gives 50% inhibition. A low value points to greater potency. For the compound `C[C@H]1COC2=C1C(=O)C(=O)c1c2ccc2c1CCCC2(C)C` [F1-1, cryptotanshinone], the IC50 in test [1] amounted to 12.3 µM.

In test [2], `O=C1[C@H](CC[C@H](O)c2ccc(F)cc2)[C@@H](c2ccc(O)cc2)N1c1ccc(F)cc1` [ezetimibe] returned an IC50 of 350 nM.
